Values joined by “and” are separate entries in the source; they are usually repeats but may differ in a detail not shown here. Equal entries are not always repeated.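 Grown in 96-well plates, cells were treated for 48 hours with each compound at five concentrations. Insufficient inhibition: endpoint recorded as highest concentration tested. At the GI50, growth is halved. TGI is the concentration that stops growth completely.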

Test systems include SN12C renal; SF-268 CNS; KM12 colon; MCF7 breast; SF-539 CNS; OVCAR-3 ovarian; BT-549 breast; DU-145 prostate; PC-3 prostate; HOP-62 NSCLC.
Holding throughout (test): NCI-60 cell line screen, 48 h

On to `COc1cccc(-c2nn(-c3ccccc3)cc2-c2ccnc(NCCCNS(=O)(=O)c3ccc(C(F)(F)F)cc3)c2)c1`, for which the GI50 was 8.4 µM in the assay on SN12C renal; 6.88 µM in the assay on SF-268 CNS; 4.02 µM in the assay with KM12 colon; 3.87 µM in the assay with MCF7 breast; 5.66 µM in the assay on SF-539 CNS; 5.75 µM with OVCAR-3 ovarian. Further, the GI50 is 4.41 µM in the assay on BT-549 breast, 22.7 µM with DU-145 prostate, 3.36 µM with PC-3 prostate and 13.8 µM in the assay with HOP-62 NSCLC. The TGI with SN12C renal, in the assay with SF-268 CNS, in the assay with KM12 colon, with MCF7 breast, with SF-539 CNS and in the assay on OVCAR-3 ovarian was greater than 100 µM in each case. For the same compound, the TGI with BT-549 breast, in the assay with DU-145 prostate, with PC-3 prostate and in the assay on HOP-62 NSCLC was greater than 100 µM in each case.
On to `NC(=O)c1ncn2c(=O)n(CCCl)nnc12`, for which the TGI in the assay with SN12C renal was 546 µM; in the assay with SF-268 CNS, > 45 µM and 709 µM; in the assay with KM12 colon, 408 µM; with MCF7 breast, 379 µM; with SF-539 CNS, 164 µM; in the assay with OVCAR-3 ovarian it was 475 µM. Besides, the TGI with BT-549 breast was determined as 306 µM; in the assay with DU-145 prostate, 520 µM; in the assay on PC-3 prostate it was 534 µM; in the assay with HOP-62 NSCLC, 139 µM. In addition, the GI50 was 10.7 µM with SF-268 CNS, greater than 92.4 µM in the assay on KM12 colon, 68.3 µM in the assay with MCF7 breast and 53.4 µM in the assay with HOP-62 NSCLC.
On to `C[C@@H](Oc1cc(-c2cnn(C3CCNCC3)c2)cnc1N)c1c(Cl)cc(F)cc1Cl`, for which the GI50 in the assay with SN12C renal was 1.95 µM; in the assay on SF-268 CNS, 3.05 µM; in the assay with KM12 colon, 0.0496 µM; in the assay with MCF7 breast it was 0.516 µM; in the assay with SF-539 CNS it was 1.67 µM; in the assay on OVCAR-3 ovarian, 4.13 µM. Moreover, the GI50 in the assay on BT-549 breast was 4.08 µM; with DU-145 prostate it was 3.25 µM; in the assay with PC-3 prostate, 1.99 µM; with HOP-62 NSCLC, 2 µM. Further, the TGI came to 13.3 µM with SN12C renal; 12.1 µM in the assay with SF-268 CNS; 2.93 µM in the assay with KM12 colon; 2.12 µM with MCF7 breast; 3.3 µM with SF-539 CNS; 13.5 µM in the assay on OVCAR-3 ovarian. Further, the TGI in the assay on BT-549 breast amounted to 13 µM; in the assay with DU-145 prostate, 13.6 µM; in the assay with PC-3 prostate, 14.7 µM; with HOP-62 NSCLC it was 9.52 µM.
`CC(=O)/C=C/c1ccc(N(CCO)Cc2ccc(C(C)(C)C)cc2)cc1`: the GI50 in the assay with SN12C renal was 38.7 µM; in the assay with SF-268 CNS it was 59 µM; with KM12 colon, 39.6 µM; in the assay on MCF7 breast, 26.5 µM; with SF-539 CNS, 84.3 µM; in the assay on OVCAR-3 ovarian it was 60.3 µM. In addition, the GI50 is 47.8 µM in the assay with BT-549 breast, 73.2 µM in the assay with DU-145 prostate, 32.2 µM in the assay on PC-3 prostate and 104 µM in the assay on HOP-62 NSCLC. In addition, the TGI was 157 µM in the assay on SN12C renal; 200 µM with SF-268 CNS; 155 µM with KM12 colon; 118 µM in the assay with MCF7 breast; 212 µM with SF-539 CNS; 187 µM in the assay on OVCAR-3 ovarian. Also, the TGI was found to be 178 µM in the assay on BT-549 breast, 206 µM with DU-145 prostate, 128 µM with PC-3 prostate and 231 µM in the assay with HOP-62 NSCLC.
In the case of `CCC(=C(c1ccc(OCCN2CCCC2)cc1)c1ccc(OCCN2CCCC2)cc1)c1ccc(Cl)cc1`, the GI50 in the assay on SN12C renal is 0.572 µM; in the assay on SF-268 CNS, 0.612 µM; with KM12 colon, 0.626 µM; in the assay with MCF7 breast, 0.287 µM; in the assay with SF-539 CNS it was 0.558 µM; in the assay on OVCAR-3 ovarian it was 0.624 µM. The GI50 is 0.733 µM in the assay with BT-549 breast, 0.617 µM in the assay with DU-145 prostate, 0.569 µM in the assay on PC-3 prostate and 0.688 µM with HOP-62 NSCLC. Further, the TGI in the assay on SN12C renal was 1.1 µM; in the assay on SF-268 CNS it was 1.25 µM; in the assay with KM12 colon it was 1.21 µM; with MCF7 breast it was 0.822 µM; with SF-539 CNS, 1.05 µM; in the assay with OVCAR-3 ovarian, 1.29 µM. Further, the TGI with BT-549 breast is 1.86 µM; in the assay with DU-145 prostate it was 1.14 µM; in the assay on PC-3 prostate, 1.2 µM; in the assay with HOP-62 NSCLC, 1.58 µM.
Regarding `N/C(=N/S(=O)(=O)c1cc(C(=O)Nc2ccc(F)cc2)c(Cl)cc1SCc1ccccc1)Nc1ccccc1O`, the GI50 is 1.88 µM with SN12C renal; 2.12 µM with SF-268 CNS; 1.79 µM in the assay with KM12 colon; 2.79 µM in the assay on MCF7 breast; 1.94 µM in the assay on SF-539 CNS; 1.44 µM in the assay with OVCAR-3 ovarian. Besides, the GI50 was 1.83 µM in the assay on BT-549 breast, 1.83 µM with DU-145 prostate, 2.08 µM in the assay on PC-3 prostate and 2.04 µM in the assay with HOP-62 NSCLC. The TGI in the assay with SN12C renal turned out to be 3.7 µM; in the assay on SF-268 CNS, 5.69 µM; in the assay on KM12 colon it was 3.33 µM; in the assay on MCF7 breast it was 6.13 µM; in the assay on SF-539 CNS, 4.23 µM; in the assay with OVCAR-3 ovarian it was 2.81 µM. The TGI in the assay with BT-549 breast worked out at 4.74 µM; with DU-145 prostate it was 3.56 µM; in the assay with PC-3 prostate, 4.61 µM; with HOP-62 NSCLC it was 4.52 µM.
For the compound `COc1ccc(C(Nc2ccccn2)c2cc(C(C)(C)C)cc(C(C)(C)C)c2O)cc1` (stereo not drawn), the TGI is greater than 100 µM with SN12C renal; greater than 100 µM in the assay with SF-268 CNS; 63.8 µM with KM12 colon; greater than 100 µM in the assay with MCF7 breast; greater than 100 µM in the assay with SF-539 CNS; 43.6 µM in the assay on OVCAR-3 ovarian. For the same compound, the TGI in the assay with BT-549 breast was 56.8 µM; in the assay with DU-145 prostate it was greater than 100 µM; in the assay on PC-3 prostate, greater than 100 µM; in the assay with HOP-62 NSCLC it was 78.2 µM.
For `COc1ccc2c(c1)C(=O)c1c-2n(CCCCl)c(=O)c2cc(N)ccc12`, the TGI in the assay on SN12C renal was 97.4 µM; with SF-268 CNS it was greater than 100 µM; with KM12 colon it was greater than 100 µM; in the assay on MCF7 breast it was greater than 100 µM; in the assay with SF-539 CNS, greater than 100 µM; in the assay on OVCAR-3 ovarian, greater than 100 µM. Further, the TGI with BT-549 breast, in the assay on DU-145 prostate, in the assay on PC-3 prostate and in the assay on HOP-62 NSCLC was greater than 100 µM each time. Moreover, the GI50 is greater than 75.4 µM with SF-268 CNS; 29.3 µM in the assay on KM12 colon; 34.8 µM in the assay with MCF7 breast; greater than 100 µM with SF-539 CNS; greater than 100 µM in the assay on OVCAR-3 ovarian; greater than 100 µM with BT-549 breast. In addition, the results for the GI50 in the assay on DU-145 prostate, in the assay with PC-3 prostate and with HOP-62 NSCLC were 56.9 µM, greater than 72.8 µM and greater than 100 µM, respectively.
